# According to publication PMC10994248 (The Oncologist, 2024):
# Assay: Phase I safety and tolerability (TEAEs, DLTs, MTD, DRDE) in patients with advanced solid tumors
# Type: in vivo, human
# Experimental: This 2-part, open-label, phase I study was conducted at the MD Anderson Cancer Center in Texas, USA and the Cancer Hospital Chinese Academy of Medical Sciences in Beijing, China. […] This was followed by a dose-expansion phase, the primary objective of which was to confirm the safety and tolerability of tinengotinib at the DRDE. Secondary objectives were to characterize the pharmacokinetics and preliminary efficacy of tinengotinib.
# Dose escalation was guided by an adaptive Bayesian logistic regression model using the Escalation with Overdose Control principle.[6],[7] Study data (including DLTs, grade 2 adverse events during cycle 1, and pharmacokinetic data) were reviewed by the sponsor and trial investigators at each dose level and used to guide dose-escalation decisions. MTD was based on the Bayesian model, but with consideration given to available safety and tolerability data. DRDE was based on an evaluation of all available data (safety, clinical activity, and pharmacokinetics).
# After determination of the DRDE, the dose-expansion phase was opened to further characterize safety and pharmacokinetics, and to assess preliminary efficacy.
# Routine safety assessments of adverse events, laboratory tests (hematology, coagulation, biochemistry, and urinalysis), vital signs, and 12-lead electrocardiograms were performed. Adverse events were graded according to the National Cancer Institute Common Terminology Criteria for Adverse Events (CTCAE), version 5.0.
# [1] = dose escalation (n = 40), any grade
# [2] = dose escalation (n = 40), grade ≥3
# [3] = dose expansion (12 mg, n = 8), any grade
# [4] = dose expansion (12 mg, n = 8), grade ≥3
substance,measurement,setting,value
tinengotinib,Patients with study drug-related TEAE leading to study drug permanent discontinuation,dose escalation 12 mg (n=12),1 (8.3) n (%)
same,Patients with study drug-related grade ≥3 TEAE,dose escalation 12 mg (n=12),6 (50.0) n (%)
same,Patients with study drug-related treatment-emergent SAE,dose escalation 12 mg (n=12),0 n (%)
same,Patients with treatment-emergent SAE,dose escalation 12 mg (n=12),5 (41.7) n (%)
same,Patients with AE,dose escalation 15 mg (n=6),6 (100) n (%)
same,Patients with TEAE,dose escalation 15 mg (n=6),6 (100) n (%)
same,Patients with TEAE leading to death,dose escalation 15 mg (n=6),0 n (%)
same,Patients with TEAE leading to dose adjustment/temporary interruption,dose escalation 15 mg (n=6),4 (66.7) n (%)
same,Patients with TEAE leading to study drug permanent discontinuation,dose escalation 15 mg (n=6),3 (50.0) n (%)
same,Patients with grade ≥3 TEAE,dose escalation 15 mg (n=6),5 (83.3) n (%)
same,Patients with study drug-related TEAE,dose escalation 15 mg (n=6),5 (83.3) n (%)
same,Patients with study drug-related TEAE leading to dose adjustment/temporary interruption,dose escalation 15 mg (n=6),3 (50.0) n (%)
same,Patients with study drug-related TEAE leading to study drug permanent discontinuation,dose escalation 15 mg (n=6),0 n (%)
same,Patients with study drug-related grade ≥3 TEAE,dose escalation 15 mg (n=6),3 (50.0) n (%)
same,Patients with study drug-related treatment-emergent SAE,dose escalation 15 mg (n=6),1 (16.7) n (%)
same,Patients with treatment-emergent SAE,dose escalation 15 mg (n=6),4 (66.7) n (%)
same,Study drug-related TEAE,[1],33 (82.5) No. (%)
same,Study drug-related TEAE: Alanine aminotransferase increased,[1],4 (10.0) No. (%)
same,Study drug-related TEAE: Aspartate aminotransferase increased,[1],4 (10.0) No. (%)
same,Study drug-related TEAE: Blood thyroid-stimulating hormone increased,[1],4 (10.0) No. (%)
same,Study drug-related TEAE: Decreased appetite,[1],5 (12.5) No. (%)
same,Study drug-related TEAE: Diarrhea,[1],15 (37.5) No. (%)
same,Study drug-related TEAE: Dry mouth,[1],5 (12.5) No. (%)
same,Study drug-related TEAE: Hypertension,[1],19 (47.5) No. (%)
same,Study drug-related TEAE: Myalgia,[1],5 (12.5) No. (%)
same,Study drug-related TEAE: Nausea,[1],11 (27.5) No. (%)
same,Study drug-related TEAE: Palmar-plantar erythrodysesthesia syndrome,[1],10 (25.0) No. (%)
same,Study drug-related TEAE: Proteinuria,[1],6 (15.0) No. (%)
same,Study drug-related TEAE: Stomatitis,[1],9 (22.5) No. (%)
same,Study drug-related TEAE: Vomiting,[1],10 (25.0) No. (%)
same,Study drug-related serious TEAE,[1],5 (12.5) No. (%)
same,Study drug-related TEAE,[2],16 (40.0) No. (%)
same,Study drug-related TEAE: Alanine aminotransferase increased,[2],0 No. (%)
same,Study drug-related TEAE: Aspartate aminotransferase increased,[2],0 No. (%)
same,Study drug-related TEAE: Blood thyroid-stimulating hormone increased,[2],0 No. (%)
same,Study drug-related TEAE: Decreased appetite,[2],0 No. (%)
same,Study drug-related TEAE: Diarrhea,[2],1 (2.5) No. (%)
same,Study drug-related TEAE: Dry mouth,[2],0 No. (%)
same,Study drug-related TEAE: Hypertension,[2],9 (22.5) No. (%)
same,Study drug-related TEAE: Myalgia,[2],0 No. (%)
same,Study drug-related TEAE: Nausea,[2],1 (2.5) No. (%)
same,Study drug-related TEAE: Palmar-plantar erythrodysesthesia syndrome,[2],1 (2.5) No. (%)
same,Study drug-related TEAE: Proteinuria,[2],0 No. (%)
same,Study drug-related TEAE: Stomatitis,[2],2 (5.0) No. (%)
same,Study drug-related TEAE: Vomiting,[2],0 No. (%)
same,Study drug-related serious TEAE,[2],0 No. (%)
same,Patients with AE,dose escalation total (n=40),39 (97.5) n (%)
same,Patients with TEAE,dose escalation total (n=40),39 (97.5) n (%)
same,Patients with TEAE leading to death,dose escalation total (n=40),0 n (%)
same,Patients with TEAE leading to dose adjustment/temporary interruption,dose escalation total (n=40),24 (60.0) n (%)
same,Patients with TEAE leading to study drug permanent discontinuation,dose escalation total (n=40),12 (30.0) n (%)
same,Patients with grade ≥3 TEAE,dose escalation total (n=40),26 (65.0) n (%)
same,Patients with study drug-related TEAE,dose escalation total (n=40),33 (82.5) n (%)
same,Patients with study drug-related TEAE leading to dose adjustment/temporary interruption,dose escalation total (n=40),18 (45.0) n (%)
same,Patients with study drug-related TEAE leading to study drug permanent discontinuation,dose escalation total (n=40),6 (15.0) n (%)
same,Patients with study drug-related grade ≥3 TEAE,dose escalation total (n=40),16 (40.0) n (%)
same,Patients with study drug-related treatment-emergent SAE,dose escalation total (n=40),5 (12.5) n (%)
same,Patients with treatment-emergent SAE,dose escalation total (n=40),18 (45.0) n (%)
same,Patients with AE,dose expansion 12 mg (n=8),8 (100) n (%)
same,Patients with TEAE,dose expansion 12 mg (n=8),8 (100) n (%)
same,Patients with TEAE leading to death,dose expansion 12 mg (n=8),0 n (%)
same,Patients with TEAE leading to dose adjustment/temporary interruption,dose expansion 12 mg (n=8),7 (87.5) n (%)
same,Patients with TEAE leading to study drug permanent discontinuation,dose expansion 12 mg (n=8),0 n (%)
same,Patients with grade ≥3 TEAE,dose expansion 12 mg (n=8),5 (62.5) n (%)
same,Patients with study drug-related TEAE,dose expansion 12 mg (n=8),8 (100) n (%)
same,Patients with study drug-related TEAE leading to dose adjustment/temporary interruption,dose expansion 12 mg (n=8),7 (87.5) n (%)
same,Patients with study drug-related TEAE leading to study drug permanent discontinuation,dose expansion 12 mg (n=8),0 n (%)
same,Patients with study drug-related grade ≥3 TEAE,dose expansion 12 mg (n=8),5 (62.5) n (%)
same,Patients with study drug-related treatment-emergent SAE,dose expansion 12 mg (n=8),3 (37.5) n (%)
same,Patients with treatment-emergent SAE,dose expansion 12 mg (n=8),4 (50.0) n (%)
same,Study drug-related TEAE,[3],8 (100) No. (%)
same,Study drug-related TEAE: Alanine aminotransferase increased,[3],1 (12.5) No. (%)
same,Study drug-related TEAE: Aspartate aminotransferase increased,[3],1 (12.5) No. (%)
same,Study drug-related TEAE: Blood thyroid-stimulating hormone increased,[3],3 (37.5) No. (%)
same,Study drug-related TEAE: Decreased appetite,[3],2 (25.0) No. (%)
same,Study drug-related TEAE: Diarrhea,[3],1 (12.5) No. (%)
same,Study drug-related TEAE: Dry mouth,[3],0 No. (%)
same,Study drug-related TEAE: Hypertension,[3],5 (62.5) No. (%)
same,Study drug-related TEAE: Myalgia,[3],0 No. (%)
same,Study drug-related TEAE: Nausea,[3],0 No. (%)
same,Study drug-related TEAE: Palmar-plantar erythrodysesthesia syndrome,[3],4 (50.0) No. (%)
same,Study drug-related TEAE: Proteinuria,[3],0 No. (%)
same,Study drug-related TEAE: Stomatitis,[3],5 (62.5) No. (%)
same,Study drug-related TEAE: Vomiting,[3],0 No. (%)
same,Study drug-related TEAE,[4],5 (62.5) No. (%)
same,Study drug-related TEAE: Alanine aminotransferase increased,[4],0 No. (%)
same,Study drug-related TEAE: Aspartate aminotransferase increased,[4],0 No. (%)
same,Study drug-related TEAE: Blood thyroid-stimulating hormone increased,[4],0 No. (%)
same,Study drug-related TEAE: Decreased appetite,[4],0 No. (%)
same,Study drug-related TEAE: Diarrhea,[4],0 No. (%)
same,Study drug-related TEAE: Dry mouth,[4],0 No. (%)
same,Study drug-related TEAE: Hypertension,[4],4 (50.0) No. (%)
same,Study drug-related TEAE: Myalgia,[4],0 No. (%)
same,Study drug-related TEAE: Nausea,[4],0 No. (%)
same,Study drug-related TEAE: Palmar-plantar erythrodysesthesia syndrome,[4],0 No. (%)
same,Study drug-related TEAE: Proteinuria,[4],0 No. (%)
same,Study drug-related TEAE: Stomatitis,[4],0 No. (%)
same,Study drug-related TEAE: Vomiting,[4],0 No. (%)
same,Study drug-related serious TEAE,[4],0 No. (%)
same,Dose recommended for dose expansion (DRDE),"orally once daily, 28-day cycle",12 mg
same,Study drug-related TEAE,"total (n = 48), any grade",41 (85.4) No. (%)
same,Study drug-related TEAE: Alanine aminotransferase increased,"total (n = 48), any grade",5 (10.4) No. (%)
same,Study drug-related TEAE: Aspartate aminotransferase increased,"total (n = 48), any grade",5 (10.4) No. (%)
same,Study drug-related TEAE: Blood thyroid-stimulating hormone increased,"total (n = 48), any grade",7 (14.6) No. (%)
same,Study drug-related TEAE: Decreased appetite,"total (n = 48), any grade",7 (14.6) No. (%)
same,Study drug-related TEAE: Diarrhea,"total (n = 48), any grade",16 (33.3) No. (%)
same,Study drug-related TEAE: Dry mouth,"total (n = 48), any grade",5 (10.4) No. (%)
same,Study drug-related TEAE: Hypertension,"total (n = 48), any grade",24 (50.0) No. (%)
same,Study drug-related TEAE: Myalgia,"total (n = 48), any grade",5 (10.4) No. (%)
same,Study drug-related TEAE: Nausea,"total (n = 48), any grade",11 (22.9) No. (%)
same,Study drug-related TEAE: Palmar-plantar erythrodysesthesia syndrome,"total (n = 48), any grade",14 (29.2) No. (%)
same,Study drug-related TEAE: Proteinuria,"total (n = 48), any grade",6 (12.5) No. (%)
same,Study drug-related TEAE: Stomatitis,"total (n = 48), any grade",14 (29.2) No. (%)
same,Study drug-related TEAE: Vomiting,"total (n = 48), any grade",10 (20.8) No. (%)
same,Study drug-related TEAE,"total (n = 48), grade ≥3",21 (43.8) No. (%)
same,Study drug-related TEAE: Alanine aminotransferase increased,"total (n = 48), grade ≥3",0 No. (%)
same,Study drug-related TEAE: Aspartate aminotransferase increased,"total (n = 48), grade ≥3",0 No. (%)
same,Study drug-related TEAE: Blood thyroid-stimulating hormone increased,"total (n = 48), grade ≥3",0 No. (%)
same,Study drug-related TEAE: Decreased appetite,"total (n = 48), grade ≥3",0 No. (%)
same,Study drug-related TEAE: Diarrhea,"total (n = 48), grade ≥3",1 (2.1) No. (%)
same,Study drug-related TEAE: Dry mouth,"total (n = 48), grade ≥3",0 No. (%)
same,Study drug-related TEAE: Hypertension,"total (n = 48), grade ≥3",13 (27.1) No. (%)
same,Study drug-related TEAE: Myalgia,"total (n = 48), grade ≥3",0 No. (%)
same,Study drug-related TEAE: Nausea,"total (n = 48), grade ≥3",1 (2.1) No. (%)
same,Study drug-related TEAE: Palmar-plantar erythrodysesthesia syndrome,"total (n = 48), grade ≥3",1 (2.1) No. (%)
same,Study drug-related TEAE: Proteinuria,"total (n = 48), grade ≥3",0 No. (%)
same,Study drug-related TEAE: Stomatitis,"total (n = 48), grade ≥3",2 (4.2) No. (%)
same,Study drug-related TEAE: Vomiting,"total (n = 48), grade ≥3",0 No. (%)
same,Study drug-related serious TEAE,"total (n = 48), grade ≥3",0 No. (%)
same,Patients with AE,total (n=48),47 (97.9) n (%)
same,Patients with TEAE,total (n=48),47 (97.9) n (%)
same,Patients with TEAE leading to death,total (n=48),0 n (%)
same,Patients with TEAE leading to dose adjustment/temporary interruption,total (n=48),31 (64.6) n (%)
same,Patients with TEAE leading to study drug permanent discontinuation,total (n=48),12 (25.0) n (%)
same,Patients with grade ≥3 TEAE,total (n=48),31 (64.6) n (%)
same,Patients with study drug-related TEAE,total (n=48),41 (85.4) n (%)
same,Patients with study drug-related TEAE leading to dose adjustment/temporary interruption,total (n=48),25 (52.1) n (%)
same,Patients with study drug-related TEAE leading to study drug permanent discontinuation,total (n=48),6 (12.5) n (%)
same,Patients with study drug-related grade ≥3 TEAE,total (n=48),21 (43.8) n (%)
same,Patients with study drug-related treatment-emergent SAE,total (n=48),8 (16.7) n (%)
same,Patients with treatment-emergent SAE,total (n=48),22 (45.8) n (%)
